Measurements taken from patent US10442796B2, “2,3,5-substituted thiophene compound as protein kinase inhibitor” (KOREA INSTITUTE OF SCIENCE AND TECHNOLOGY, priority 2016, dated 2019).
Residue numbers refer to the chain shown, from its start. Where a name gives a salt, the structure may show the parent alone.

Experiments:
[1] = target: T1, FLT3-ITD-F691L Ba/F3 cells (Homo sapiens, UniProt P36888, F691L, cells depend on it, form not given); assay: Growth inhibitory activity against Ba/F3 cell line; format: cell-based; details: Ba/F3 expressing FLT3-ITD-F691L; 72 hours; cell titer glo; read-out: IC50 (uM) FLT3-ITD-F691L
T1 sequence (P36888 1-993 F691L): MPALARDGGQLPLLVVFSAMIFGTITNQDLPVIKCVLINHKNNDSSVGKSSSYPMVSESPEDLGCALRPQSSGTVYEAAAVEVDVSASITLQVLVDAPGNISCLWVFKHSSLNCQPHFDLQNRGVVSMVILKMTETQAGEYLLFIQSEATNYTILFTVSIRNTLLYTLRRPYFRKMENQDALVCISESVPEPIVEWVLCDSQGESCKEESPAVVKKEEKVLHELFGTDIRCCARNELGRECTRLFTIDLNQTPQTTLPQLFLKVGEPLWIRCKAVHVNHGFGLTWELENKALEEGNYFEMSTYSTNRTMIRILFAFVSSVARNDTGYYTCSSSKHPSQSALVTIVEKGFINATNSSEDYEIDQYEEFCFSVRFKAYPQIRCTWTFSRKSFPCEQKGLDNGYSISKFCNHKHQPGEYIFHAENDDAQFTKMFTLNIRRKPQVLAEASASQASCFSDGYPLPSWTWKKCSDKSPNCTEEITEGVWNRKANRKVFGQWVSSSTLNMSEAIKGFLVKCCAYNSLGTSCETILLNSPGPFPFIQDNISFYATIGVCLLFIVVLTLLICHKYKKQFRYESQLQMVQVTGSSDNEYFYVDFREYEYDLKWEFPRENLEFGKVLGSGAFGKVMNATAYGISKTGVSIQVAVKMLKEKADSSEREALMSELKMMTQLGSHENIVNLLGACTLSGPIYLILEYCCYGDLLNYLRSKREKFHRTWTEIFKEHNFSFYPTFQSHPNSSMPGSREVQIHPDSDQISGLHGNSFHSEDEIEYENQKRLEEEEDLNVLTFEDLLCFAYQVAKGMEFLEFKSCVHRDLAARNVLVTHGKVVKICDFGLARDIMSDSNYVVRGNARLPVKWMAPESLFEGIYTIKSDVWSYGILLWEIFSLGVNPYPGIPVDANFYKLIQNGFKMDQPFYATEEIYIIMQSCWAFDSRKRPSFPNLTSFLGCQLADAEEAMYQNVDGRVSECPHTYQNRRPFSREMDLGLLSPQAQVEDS
Method: (§1) A Ba/F3 cell line expressing an FLT3 mutation gene was cultured in a culture solution including 90% RPMI, 10% FBS, and an antibiotic (Welgene). 100 uL of the Ba/F3 cell line was put into each of 5,000 wells of a TC-treated 96 well plate (SPL), and then 1 uL of a test compound diluted in dimethylsulfoxide (diluted for each 3 paint from a concentration of 1 mM, total 10 concentrations) was each injected thereinto. Thereafter, the resulting cell lines were incubated in a cell culture incubator for 72 hours. 50 uL of a cell titer glo (Promega) solution was added thereto, the resulting mixture was stored at room temperature for 10 minutes, and then the light emission intensity was measured by using a reader (Envision, PerkinElmer). The light emission intensity was shown as a graph for each final concentration of the test compound, and the GI50 value was obtained by using a Prism 5.0 (GraphPad) software.

[2] = target: T2, FLT3-ITD-F691L-D835Y Ba/F3 cells (Homo sapiens, UniProt P36888, F691L/D835Y, cells depend on it, form not given); assay: Growth inhibitory activity against Ba/F3 cell line; format: cell-based; details: Ba/F3 expressing FLT3-ITD-F691L-D835Y; 72 hours; cell titer glo; read-out: IC50 (uM) FLT3-ITD-F691L-D835Y
T2 sequence (P36888 1-993 F691L/D835Y): T1 sequence (P36888 1-993 F691L) with D835Y
Method: as §1

Row | SMILES | GI50 [1] [µM] | GI50 [2] [µM]
1 | NC(=O)Nc1cc(C#Cc2ccncc2)sc1C(=O)N[C@H]1CCCNC1 [Example 4, (S)—N-(piperidin-3-yl)-5-(pyridin-4-ylethynyl)-3-ureidothiophene-2-carboxamide] | 1.1 | 0.01
2 | CC(=O)N1CCC(n2cc(C#Cc3cc(NC(N)=O)c(C(=O)N[C@H]4CCCCNC4)s3)cn2)CC1 [Example 49] | 0.616 | 0.031
3 | NC(=O)Nc1cc(C#Cc2cccnc2)sc1C(=O)N[C@H]1CCCNC1 [Example 3, (S)—N-(piperidin-3-yl)-5-(pyridin-3-ylethynyl)-3-ureidothiophene-2-carboxamide] | 0.099 | < 0.004
4 | NC(=O)Nc1cc(C#Cc2ccc(Cl)cc2)sc1C(=O)N[C@H]1CCCNC1 [Example 8, (S)-5-((4-chlorophenyl)ethynyl)-N-(piperidin-3-yl)-3-ureidothiophene-2-carboxamide] | 0.013 | < 0.001
5 | CS(=O)(=O)N1CCC(n2cc(C#Cc3cc(NC(N)=O)c(C(=O)N[C@H]4CCCNC4)s3)cn2)CC1 [Example 23, (S)-5-((1-(1-(methylsulfonyl)piperidin-4-yl)-1H-pyrazol-4-yl)ethynyl)-N-(piperidin-3-yl)-3-ureidothiophene-2-carboxamide] | 0.267 | 0.02
6 | NC(=O)Nc1cc(C#Cc2cn[nH]c2)sc1C(=O)N[C@H]1CCCCNC1 [Example 42, (S)-5-((1H-pyrazol-4-yl)ethynyl)-N-(azepan-3-yl)-3-ureidothiophene-2-carboxamide trifluoroacetate] | 5.23 | 0.116
7 | NC(=O)Nc1cc(C#Cc2ccc(C(F)(F)F)nc2)sc1C(=O)N[C@H]1CCCNC1 [Example 17, (S)—N-(piperidin-3-yl)-5-((6-(trifluoromethyl)pyridin-3-yl)ethynyl)-3-ureidothiophene-2-carboxamide] | 0.069 | < 0.004
8 | NC(=O)Nc1cc(C#Cc2ccccc2)sc1C(=O)N[C@H]1CCCNC1 [Example 2, (S)-5-(phenylethynyl)-N-(piperidin-3-yl)-3-ureidothiophene-2-carboxamide] | 0.004 | < 0.001
9 | NC(=O)Nc1cc(CCc2cccc(F)c2)sc1C(=O)N[C@H]1CCCNC1 [Example 53] | 1.39 | 0.149
10 | COC(=O)c1ccc(C#Cc2cc(NC(N)=O)c(C(=O)N[C@H]3CCCNC3)s2)cc1 [Example 18, methyl (S)-4-((5-(piperidin-3-ylcarbamoyl)-4-ureidothiophen-2-yl)ethynyl)benzoate trifluoroacetate] | 0.023 | < 0.001
11 | NC(=O)Nc1cc(C#Cc2ccc([N+](=O)[O-])cc2)sc1C(=O)N[C@H]1CCCNC1 [Example 7, (S)-5-((4-nitrophenyl)ethynyl)-N-(piperidin-3-yl)-3-ureidothiophene-2-carboxamide] | 0.089 | < 0.004
12 | Cn1cc(CCc2cc(NC(N)=O)c(C(=O)N[C@H]3CCCCNC3)s2)cn1 [Example 52, (S)—N-(azepan-3-yl)-5-(2-(1-methyl-1H-pyrazol-4-yl)ethyl)-3-ureidothiophene-2-carboxamide trifluoroacetate] | > 100 | > 4
13 | NC(=O)Nc1cc(C#Cc2ccnc(F)c2)sc1C(=O)N[C@H]1CCCNC1 [Example 21, (S)-5-((2-fluoropyridin-4-yl)ethynyl)-N-(piperidin-3-yl)-3-ureidothiophene-2-carboxamide] | 0.087 | < 0.004
14 | NC(=O)Nc1cc(C#Cc2cccc(F)c2)sc1C(=O)N[C@H]1CCCCNC1 [Example 50, (S)—N-(azepan-3-yl)-5-((3-fluorophenyl)ethynyl)-3-ureidothiophene-2-carboxamide] | 0.174 | 0.006
15 | CCn1cc(C#Cc2cc(NC(N)=O)c(C(=O)N[C@H]3CCCCNC3)s2)cn1 [Example 43, (S)—N-(azepan-3-yl)-5-((l-ethyl-1H-pyrazol-4-yl)ethynyl)-3-ureidothiophene-2-carboxamide trifluoroacetate] | 0.2 | 0.006
16 | N#Cc1ccc(C#Cc2cc(NC(N)=O)c(C(=O)N[C@H]3CCCNC3)s2)cc1 [Example 11, (S)-5-((4-cyanophenyl)ethynyl)-N-(piperidin-3-yl)-3-ureidothiophene-2-carboxamide] | 0.004 | < 0.001
17 | NC(=O)Nc1cc(C#Cc2ccc(F)cc2)sc1C(=O)N[C@H]1CCCNC1 [Example 9, (S)-5-((4-fluorophenyl)ethynyl)-N-(piperidin-3-yl)-3-ureidothiophene-2-carboxamide] | 0.005 | < 0.001
18 | NC(=O)Nc1cc(C#Cc2ccc(F)nc2)sc1C(=O)N[C@H]1CCCNC1 [Example 13, (S)-5-((6-fluoropyridin-3-yl)ethynyl)-N-(piperidin-3-yl)-3-ureidothiophene-2-carboxamide] | 0.022 | 0.004
19 | NC(=O)Nc1cc(C#Cc2cccc(F)c2)sc1C(=O)NC1CCNC1 (centres unmarked) [Example 40, 5-((3-fluorophenyl)ethynyl)-N-(pyrrolidin-3-yl)-3-ureidothiophene-2-carboxamide] | 0.848 | 0.079
20 | CS(=O)(=O)N1CCC(n2cc(C#Cc3cc(NC(N)=O)c(C(=O)N[C@H]4CCCCNC4)s3)cn2)CC1 [Example 47, (S)—N-(azepan-3-yl)-5-((1-(1-(methylsulfonyl)piperidin-4-yl)-1H-pyrazol-4-yl)ethynyl)-3-ureidothiophene-2-carboxamide trifluoroacetate] | 0.645 | 0.04
21 | Cn1cc(C#Cc2cc(NC(N)=O)c(C(=O)N[C@H]3CCCCNC3)s2)cn1 [Example 41, (S)—N-(azepan-3-yl)-5-((1-methyl-1H-pyrazol-4-yl)ethynyl)-3-ureidothiophene-2-carboxamide trifluoroacetate] | 0.078 | 0.007
22 | CC(C)n1cc(C#Cc2cc(NC(N)=O)c(C(=O)N[C@H]3CCCCNC3)s2)cn1 [Example 44, (S)—N-(azepan-3-yl)-5-((1-isopropyl-1H-pyrazol-4-yl)ethynyl)-3-ureidothiophene-2-carboxamide trifluoroacetate] | 0.214 | 0.004
